Results reported in patent publication US9340577B2, “HLA binding motifs and peptides and their uses” (priority 1992, dated 2016).
Where two headings read alike, the source gives them in different places. No end group written: not given here.

Assays:
Assay in all cases: biochemical
DRB3*0101 = DRB3*0101 (Homo sapiens, UniProt P01903+P79483); format: binding
DRB1*0301 = DRB1*0301 (Homo sapiens, UniProt P01903+P01911, A100K/A102G/A103R/A169T/F55Y/I96L/K41T/L162R/M171V/P40S/Q125H/Q178H/Q39Y/R42S/S66N/T106N/T262R/W38E/Y61H); format: binding
Sequence of DRB1*0301 (P01903 26-254 limits assumed, other chains not shown): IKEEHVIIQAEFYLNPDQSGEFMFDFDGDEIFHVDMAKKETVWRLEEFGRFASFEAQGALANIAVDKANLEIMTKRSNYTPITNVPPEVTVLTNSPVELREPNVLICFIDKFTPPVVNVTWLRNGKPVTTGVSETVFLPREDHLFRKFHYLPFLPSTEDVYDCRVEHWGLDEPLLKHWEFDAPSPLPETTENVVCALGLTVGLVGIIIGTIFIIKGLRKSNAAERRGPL

DRB1*1201 = DRB1*1201 (Homo sapiens, UniProt P01903+P01911, A100R/A169T/D57E/D86V/F55L/H45Y/K41T/L162R/M171V/P40S/Q125H/Q178H/Q39Y/Q99D/R42G/S66L/T262R/V114A/V67L/W38E/Y59H/Y61H/Y89S); format: binding
DRB1*1302 = DRB1*1302 (Homo sapiens, UniProt P01903+P01911, A100E/A169T/K41T/L162R/M171V/P40S/Q125H/Q178H/Q39Y/Q99D/R42S/S66N/T262R/V115G/W38E/Y61H); format: binding
Sequence of DRB1*1302 (P01903 26-254 limits assumed, other chains not shown): as above

DRB1*0802 = DRB1*0802 (Homo sapiens, UniProt P01903+P01911, A100R/A103L/A169T/F76Y/H45Y/I96F/K41T/L162R/M171V/P40S/Q125H/Q178H/Q39Y/Q99D/R218S/R42G/S66Y/V115G/W38E); format: binding
DR4w4 (DRB1*0401) = DR4w4 (DRB1*0401) (Homo sapiens, UniProt P01903+P01911, A100K/A169T/F76Y/I96L/K127E/L162R/M171V/N62H/P40V/Q125Y/R42H/S133A/S149N/S66Y/V115G/V209L/W38E); format: binding
DR7 (DRB1*0701) = DR7 (DRB1*0701) (Homo sapiens, UniProt P01903+P01911, A100R/A102G/A103Q/D57E/D86V/E43K/F76Y/K127E/L162R/M171V/P40G/Q125H/Q99D/R33Q/R42Y/R54Q/S133A/S66F/T210M/V115G/Y107V/Y59L/Y89S); format: binding
DRB4*0101 = DRB4*0101 (Homo sapiens, UniProt P01903+P13762, G164S); format: binding
DRB1*1101 = DRB1*1101 (Homo sapiens, UniProt P01903+P01911, A100R/A169T/A87E/I96F/K41T/L162R/M171V/P40S/Q125H/Q178H/Q39Y/Q99D/R42S/S66Y/T262R/V115G/W38E)
Sequence of DRB1*1101 (P01903 26-254 limits assumed, other chains not shown): as above

DR1 (DRB1*0101) = DR1 (DRB1*0101) (Homo sapiens, UniProt P01903+P01911, A100R/D57E/F55L/F60I/F76Y/I96L/L162R/M171V/P40L/Q125E/R42F/V115G/Y59C); format: binding
DRB1*0405 = DRB1*0405 (Homo sapiens, UniProt P01903+P01911, A100R/A169T/D86S/F76Y/I96L/K127E/L162R/M171V/N62H/P40V/Q125Y/R42H/S133A/S149N/S66Y/V115G/V209L/W38E); format: binding
DRB5*0101 = DRB5*0101 (Homo sapiens, UniProt P01903+Q30154)
DRB1*1501 = DRB1*1501 (Homo sapiens, UniProt P01903+P01911); format: binding
DRB1*0901 = DRB1*0901 (Homo sapiens, UniProt P01903+P01911, A100R/A103E/D57H/D86V/F55Y/F60I/F76Y/I96F/K127E/L162R/M171V/P40D/Q125H/Q99R/R33Q/R42F/S133A/S66N/T210M/V115G/W38K/Y107V/Y59G/Y89S); format: binding

Compound | IC50 (DRB3*0101) [µM] | IC50 (DRB1*0301) [µM] | IC50 (DRB1*1201) [µM] | IC50 (DRB1*1302) [µM] | IC50 (DRB1*0802) [µM] | IC50 (DR4w4 (DRB1*0401)) [µM] | IC50 (DR7 (DRB1*0701)) [µM] | IC50 (DRB4*0101) [µM] | IC50 (DRB1*1101; Binding affinity DRB1 *1101) [µM] | IC50 (DR1 (DRB1*0101)) [µM] | IC50 (DRB1*0405) [µM] | IC50 (DRB5*0101; Binding affinity DRB5 *0101) [µM] | IC50 (DRB1*1501) [µM] | IC50 (DRB1*0901) [µM] | IC50 (DRB1*1101) [µM] | IC50 (DRB5*0101) [µM]
CC(C)C[C@H](NC(=O)[C@H](Cc1ccccc1)NC(=O)CNC(=O)[C@H](CC(C)C)NC(=O)[C@H](CO)NC(=O)[C@H](CC(C)C)NC(=O)[C@H](CO)NC(=O)[C@H](C)NC(=O)[C@H](C)NC(=O)[C@H](CCCNC(=N)N)NC(=O)[C@H](C)NC(=O)[C@H](CC(C)C)NC(=O)[C@H](CC(C)C)NC(=O)[C@H](CC(C)C)NC(=O)[C@@H]1CCCN1)C(=O)O [Peptide 68.0021] | > 20 | > 20 | 1.51 | – | – | – | – | – | – | – | – | – | – | – | – | –
CC[C@H](C)[C@H](NC(=O)[C@H](Cc1c[nH]c2ccccc12)NC(=O)[C@@H](NC(=O)[C@@H](N)C(C)C)[C@@H](C)O)C(=O)NCC(=O)N[C@@H](C)C(=O)N[C@@H](C)C(=O)N1CCC[C@H]1C(=O)N[C@@H](CC(C)C)C(=O)N[C@H](C(=O)N[C@@H](CC(C)C)C(=O)N[C@@H](CO)C(=O)N[C@@H](CCCNC(=N)N)C(=O)N[C@H](C(=O)N[C@H](C(=O)O)C(C)C)[C@@H](C)CC)[C@@H](C)CC [Peptide 68.0060] | > 20 | > 20 | 0.818 | – | – | – | – | – | – | – | – | – | – | – | – | –
CC(C)C[C@H](NC(=O)[C@@H](NC(=O)[C@H](CCC(N)=O)NC(=O)[C@H](Cc1c[nH]c2ccccc12)NC(=O)[C@@H]1CCCN1C(=O)[C@H](CCC(N)=O)NC(=O)[C@@H](N)CO)C(C)C)C(=O)N[C@H](C(=O)N[C@@H](C)C(=O)N[C@@H](CO)C(=O)N[C@@H](CCCNC(=N)N)C(=O)NCC(=O)N[C@@H](CCCNC(=N)N)C(=O)N[C@@H](C)C(=O)N[C@H](C(=O)O)C(C)C)C(C)C [Peptide 68.0061] | > 20 | > 20 | 8.78 | – | – | – | – | – | – | – | – | – | – | – | – | –
CC(C)C[C@H](NC(=O)[C@@H](NC(=O)CN)C(C)C)C(=O)N[C@H](C(=O)N[C@@H](Cc1c[nH]cn1)C(=O)N1CCC[C@H]1C(=O)N[C@@H](CCC(N)=O)C(=O)N[C@@H](Cc1c[nH]c2ccccc12)C(=O)N[C@H](C(=O)N[C@@H](CC(C)C)C(=O)N[C@H](C(=O)N[C@@H](C)C(=O)N[C@@H](C)C(=O)N[C@@H](Cc1c[nH]cn1)C(=O)N[C@@H](CS)C(=O)O)[C@@H](C)O)C(C)C)C(C)C [Peptide 68.0063] | > 20 | > 20 | 7.49 | – | – | – | – | – | – | – | – | – | – | – | – | –
CC(C)C[C@H](NC(=O)[C@H](CCC(N)=O)NC(=O)[C@H](CCCCN)NC(=O)[C@@H](NC(=O)[C@H](CC(C)C)NC(=O)[C@H](CCC(N)=O)NC(=O)[C@@H](NC(=O)[C@H](C)NC(=O)[C@H](CO)NC(=O)[C@@H](NC(=O)[C@@H](NC(=O)[C@H](CC(=O)O)NC(=O)[C@H](CC(=O)O)NC(=O)[C@@H](N)CO)[C@@H](C)O)C(C)C)[C@@H](C)O)C(C)C)C(=O)N[C@@H](CCC(N)=O)C(=O)O [Peptide 1601.13] | > 20 | 10.5 | – | 16.5 | 19.3 | 9.55 | 7.67 | 0.026 | 15.6 | 7.24 | 16.3 | > 20 | > 20 | – | – | –
CC[C@H](C)[C@H](NC(=O)CNC(=O)[C@@H](NC(=O)[C@H](CCCCN)NC(=O)[C@H](CCC(=O)O)NC(=O)[C@H](CC(N)=O)NC(=O)CNC(=O)[C@H](C)N)[C@@H](C)O)C(=O)N[C@@H](CC(C)C)C(=O)N[C@H](C(=O)N[C@H](C(=O)N[C@H](C(=O)N[C@@H](Cc1ccc(O)cc1)C(=O)N[C@@H](Cc1c[nH]cn1)C(=O)N[C@@H](CO)C(=O)O)[C@@H](C)O)C(C)C)[C@@H](C)O [Peptide 1601.18] | > 20 | > 20 | – | > 20 | > 20 | 3.99 | – | 0.932 | > 20 | > 20 | 6.75 | > 20 | 2.81 | > 20 | – | –
DICNTMHYTNWTHIY [Peptide 1601.04] | 7.2 | 14.8 | – | 1.04 | – | 0.883 | 0.412 | 6.05 | > 20 | 8.96 | 2.82 | > 20 | – | 4.85 | – | –
DSVDSVNCGVISAAA [Peptide 1601.24] | > 20 | > 20 | – | 0.736 | > 20 | 1.28 | 2.14 | 8.71 | > 20 | 0.916 | 13.6 | > 20 | > 20 | 6.73 | – | –
FLDVVTIPNSVQISV [Peptide 1601.40] | 17.6 | 8.36 | – | 0.053 | 14.7 | 0.017 | 0.492 | 2.21 | 2.2 | 0.551 | 1.78 | > 20 | – | 9.35 | – | –
GVNHQHLPARRAEPQ [Peptide 1543.05] | > 20 | > 20 | – | > 20 | > 20 | > 20 | 16.8 | 14.6 | > 20 | 0.276 | > 20 | > 20 | > 20 | > 20 | – | –
LKGDANILKCLRYRL [Peptide 1601.26] | 3.19 | 0.052 | – | 6.9 | – | 5.59 | 9.02 | 6.22 | 5.53 | 17.2 | 3.14 | > 20 | 0.609 | > 20 | – | –
LSQRLNVCQDKILEH [Peptide 1601.21] | > 20 | 0.21 | – | > 20 | > 20 | > 20 | > 20 | 5.03 | > 20 | > 20 | 4.63 | > 20 | > 20 | > 20 | – | –
NTTPIIHLKGDKNSL [Peptide 1601.37] | > 20 | 7.48 | – | 5.44 | 1.9 | 11.9 | 18.8 | 0.075 | > 20 | 0.86 | > 20 | > 20 | 11.4 | > 20 | – | –
PCHTTKLLHRDSVDS [Peptide 1601.07] | > 20 | 7.26 | – | > 20 | 2.78 | > 20 | > 20 | 0.672 | 2.96 | > 20 | > 20 | > 20 | > 20 | > 20 | – | –
PTGCLKKHGYTVEVQ [Peptide 1601.23] | > 20 | > 20 | – | 0.082 | > 20 | 19.8 | 2.27 | 7.47 | > 20 | 17.9 | > 20 | > 20 | – | 1.74 | – | –
TTPIIHKLGDRNSLK [Peptide 1601.17] | 11 | 0.501 | – | 1.48 | 0.419 | 0.392 | > 20 | 0.019 | – | 0.085 | 19 | – | 0.382 | > 20 | 4.8 | 5.57
